Legend:
[1] = DLS of individual α-crystallin solutions (size in dilute solution); type: physicochemical; details: individual protein solution
Experimental: (§1) Scattering intensity was measured at angles between 30° and 90° at 5° intervals, corresponding to a scattering wave vector (q) range between 8.41×10^6 and 2.30×10^7 m^−1. The scattering wave vector is defined as q=4πn sin (θ/2)/λ, where θ is the scattering angle, and λ=514.5, the wavelength of the argon laser in vacuum, and n is 1.33, the refractive index of water. The temperature of the sample was held at constant temperature of 4 to 37±0.1° C. by a circulating water bath.
(§2) The correlation function was analyzed using CONTIN analysis to calculate lag times for the correlation functions at measured angles. The peaks represent the diffusive mode of the proteins. The delay times (τ) were converted to Γ and graphed versus q^2. The slope of the fitted line is the diffusion coefficient (D). The lines are fitted such that the intercept is zero because a non-zero value of q=0 is unphysical. The Γ versus q^2 plots were linear with r^2 values of 0.95 or greater.
(§3) All solutions were filtered with 0.22 μm hydrophobic PVDF membranes (Fisher Scientific) into 10 mm diameter borosilicate glass tubes and sealed. Solutions were allowed to equilibrate for thirty minutes prior to measuring light scattering.
Individual solutions of α-A, α-B, γD- and γ-S crystallin proteins were investigated to understand the size scale and how the proteins behave in dilute solution. (Table 1) Temperature had little effect on protein size in solution as measured by DLS.

γ-crystallin [2] = assay: DLS, aggregation of γ-crystallin (stated for γD and γS together); type: biochemical; details: for effect on the large γ-crystallin aggregate: α-crystallin mixed with γD- or γS-crystallin, molar ratio 3:1, one hour at 4° C.; for aggregation of γ-crystallin modified with the agent (DLS): dilute solution, 22° and 37° C.
Experimental: as §1, §2, §3
γ-crystallins were subjected to a variety of experimental conditions, including a range of pHs (5, 6, 7, 8, 9, 10, 11), concentrations of KCl (100 mM, 150 mM, 300 mM, 500 mM, 1000 mM) and temperature (4.5° C., 22° C., 37° C.). The pH and salt concentration were adjusted via overnight dialysis at 4° C. and their final concentration adjusted to 1.0 g/L.
It had been hypothesized that disulfide bonds might mediate the observed γ-crystallin aggregates. The DLS of the γ-crystallin proteins was also measured in 5 mM DTT, and in the presence of 1.0 g/L α-crystallin. […] Thus, this hypothesis was incorrect.
Further, the synthesized α-crystallin proteins were mixed with γ-crystallin proteins to determine if the chaperoning ability of α-crystallin disrupts the γ-crystallin aggregates. The α-A and α-B crystallins were each individually mixed with γD- or γS-crystallin in a molar ratio of 3:1, respectively, mimicking the ratio found in the human eye lens. All solutions were allowed to equilibrate for an hour at 4° C.

γS-crystallin = molecular target: T1, γS-crystallin (Homo sapiens, UniProt P22914); assay: Dynamic light scattering (DLS) of γS-crystallin, hydrodynamic radius of monomer and aggregate; type: biochemical; details: for Rh: γS modified with the agent; for Rhf / Rhs: γS; for Rhf: fast mode
T1 construct: 6xHis (N); made in house; host or cells: M15pRep E. coli (pQe1 plasmid from King Labs, MIT)
T1 sequence (P22914 1-178): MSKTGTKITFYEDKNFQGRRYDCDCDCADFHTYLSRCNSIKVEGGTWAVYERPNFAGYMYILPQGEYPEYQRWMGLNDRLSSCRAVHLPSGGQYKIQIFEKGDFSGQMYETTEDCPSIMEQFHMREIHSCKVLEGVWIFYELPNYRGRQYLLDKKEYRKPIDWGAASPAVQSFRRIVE
Experimental: (§4) The scattering wave vector is defined as q=4πn sin (θ/2)/λ, where θ is the scattering angle, and λ=514.5, the wavelength of the argon laser in vacuum, and n is 1.33, the refractive index of water. The temperature of the sample was held at constant temperature of 4 to 37±0.1° C. by a circulating water bath. The correlation function was analyzed using CONTIN analysis [NT] times for the correlation functions at measured angles. […] The delay times (τ) were converted to Γ and graphed versus q^2. The slope of the fitted line is the diffusion coefficient (D). […] All solutions were filtered with 0.22 μm hydrophobic PVDF membranes (Fisher Scientific) into 10 mm diameter borosilicate glass tubes and sealed. Solutions were allowed to equilibrate for thirty minutes prior to measuring light scattering. […] The pH and salt concentration were adjusted via overnight dialysis at 4° C. and their final concentration adjusted to 1.0 g/L. […] The scattering wave vector is defined as q=4πn sin (θ/2)/λ, where θ is the scattering angle, and λ=514.5, the wavelength of the argon laser in vacuum, and n is 1.33, the refractive index of water. The temperature of the sample was held at constant temperature of 4 to 37±0.1° C. by a circulating water bath. The correlation function was analyzed using CONTIN analysis [NT] times for the correlation functions at measured angles. […] The delay times (τ) were converted to Γ and graphed versus q^2. The slope of the fitted line is the diffusion coefficient (D). […] All solutions were filtered with 0.22 μm hydrophobic PVDF membranes (Fisher Scientific) into 10 mm diameter borosilicate glass tubes and sealed. Solutions were allowed to equilibrate for thirty minutes prior to measuring light scattering.

γ-crystallin [3] = assay: Circular dichroism of modified γ-crystallin (secondary structure); type: biochemical; details: 0.5 mg/mL, 22° C., versus native protein
Experimental: Crystallin samples were dialyzed overnight into 10 mM Na2HPO4/NaH2PO4 buffer pH 6.8 and measured at a concentration of 0.5 mg/mL. CD spectra were measured on a Jasco J715 spectropolarimeter at 22° C. using a quartz cell of 1 mm path length.

γD-crystallin = molecular target: T2, γD-crystallin (Homo sapiens, UniProt P07320); assay: Dynamic light scattering (DLS) of γD-crystallin, hydrodynamic radius of monomer and aggregate; type: biochemical; details: for Rh: γD modified with the agent; for Rhf / Rhs: γD; for Rhf: fast mode
T2 construct: 6xHis (N); made in house; host or cells: M15pRep E. coli (pQe1 plasmid from King Labs, MIT)
T2 sequence (P07320 1-174): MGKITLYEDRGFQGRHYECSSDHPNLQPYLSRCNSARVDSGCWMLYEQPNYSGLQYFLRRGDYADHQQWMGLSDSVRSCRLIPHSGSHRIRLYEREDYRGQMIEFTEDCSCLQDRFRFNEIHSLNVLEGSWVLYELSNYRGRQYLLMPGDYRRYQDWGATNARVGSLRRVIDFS
Experimental: as §4

[4] = fast mode (monomer, first Rh column), 22° C.
[5] = slow mode (aggregate), 100 mM NaCl
[6] = slow mode (aggregate), 150 mM NaCl
[7] = slow mode (aggregate), 300 mM NaCl
[8] = α-crystallin additive, molar ratio 3:1, one hour at 4° C.
[9] = slow mode, α-crystallin additive, molar ratio 3:1, one hour at 4° C.

## αA: αA-crystallin, heat shock protein and molecular chaperone, 19.9 kDa
[1]; 4°
  Rh: 12 nm
[1]; 22°
  Rh: 12 nm
[1]; 37°
  Rh: 13 nm
γ-crystallin [2]
  effect on the large γ-crystallin aggregate: the large γ-crystallin aggregate of several hundred nanometers disappeared

## CC(=O)O.O=C1CC(S(=O)(=O)O)C(=O)N1O (stereo not shown) [SA, sulfo-N-hydroxysuccinimide acetate]
γS-crystallin; fast mode (monomer), 37° C.
  Rh: 2.5 nm
γS-crystallin; [4]
  Rh: 2.5 nm
γS-crystallin; slow mode (aggregate), 22° C.
  Rh: 92.5 nm
γS-crystallin; slow mode (aggregate), 37° C.
  Rh: 90 nm
γ-crystallin [3]
  secondary structure of modified γ-crystallin (CD spectra): smaller well around 220 nm as compared to the native
γD-crystallin; fast mode (monomer), 37° C.
  Rh: 2.6 nm
γD-crystallin; [4]
  Rh: 2.5 nm
γD-crystallin; slow mode (aggregate), 22° C.
  Rh: 82.5 nm
γD-crystallin; slow mode (aggregate), 37° C.
  Rh: 85 nm
γ-crystallin [2]
  aggregation of γ-crystallin modified with the agent (DLS): did not prevent aggregation

## PEG4
γS-crystallin; fast mode (monomer), 37° C.
  Rh: 2.9 nm
γS-crystallin; [4]
  Rh: 2.9 nm
γ-crystallin [3]
  secondary structure of modified γ-crystallin (CD spectra): did not significantly affect the secondary structures
γD-crystallin; fast mode (monomer), 37° C.
  Rh: 2.9 nm
γD-crystallin; [4]
  Rh: 2.8 nm
γ-crystallin [2]
  aggregation of γ-crystallin modified with the agent (DLS): showed no aggregation

## [Cl-].[Na+] [NaCl]
γS-crystallin; 100 mM NaCl
  Rhf: 2.7 nm
γS-crystallin; 150 mM NaCl
  Rhf: 2.7 nm
γS-crystallin; 300 mM NaCl
  Rhf: 2.9 nm
γS-crystallin; 400 mM NaCl
  Rhf: 2.6 nm
γS-crystallin; 500 mM NaCl
  Rhf: 2.5 nm
γS-crystallin; 1000 mM NaCl
  Rhf: 2.6 nm
γS-crystallin; [5]
  Rhs: 104 nm
γS-crystallin; [6]
  Rhs: 102 nm
γS-crystallin; [7]
  Rhs: 100 nm
γD-crystallin; 100 mM NaCl
  Rhf: 2.8 nm
γD-crystallin; 150 mM NaCl
  Rhf: 2.8 nm
γD-crystallin; 300 mM NaCl
  Rhf: 2.6 nm
γD-crystallin; 400 mM NaCl
  Rhf: 2.7 nm
γD-crystallin; 500 mM NaCl
  Rhf: 2.8 nm
γD-crystallin; 1000 mM NaCl
  Rhf: 2.5 nm
γD-crystallin; [5]
  Rhs: 108 nm
γD-crystallin; [6]
  Rhs: 104 nm
γD-crystallin; [7]
  Rhs: 91 nm

## O[C@@H](CS)[C@@H](O)CS [DTT, reference compound]
γS-crystallin; additive 5 mM DTT
  Rhf: 3 nm
γS-crystallin; slow mode, additive 5 mM DTT
  Rhs: 102 nm
γD-crystallin; additive 5 mM DTT
  Rhf: 2.6 nm
γD-crystallin; slow mode, additive 5 mM DTT
  Rhs: 108 nm
γ-crystallin [2]; 5 mM DTT
  effect on the size of the γ-crystallin aggregates: had no effect on the size of the γ-crystallin aggregates

## Biotin
γS-crystallin; fast mode (monomer), 37° C.
  Rh: 2.8 nm
γS-crystallin; [4]
  Rh: 2.6 nm
γS-crystallin; slow mode (aggregate), 22° C.
  Rh: 180 nm
γS-crystallin; slow mode (aggregate), 37° C.
  Rh: 210 nm
γ-crystallin [3]
  secondary structure of modified γ-crystallin (CD spectra): showed a sizeable shift upwards as compared with the native structure of the protein
γD-crystallin; fast mode (monomer), 37° C.
  Rh: 2.7 nm
γD-crystallin; [4]
  Rh: 2.8 nm
γD-crystallin; slow mode (aggregate), 22° C.
  Rh: 150 nm
γD-crystallin; slow mode (aggregate), 37° C.
  Rh: 170 nm
γ-crystallin [2]
  aggregation of γ-crystallin modified with the agent (DLS): resulted in aggregation

## [Cl-].[K+] [KCl]
γ-crystallin [2]; KCl concentrations 400 to 1000 mM
  aggregate formation: aggregate formation was effectively inhibited
γ-crystallin [2]; KCl concentrations of less than 300 nM (so in the source)
  reduction in the size of γ-crystallin aggregates: did not provide a reduction in the size of γ-crystallin aggregates
γ-crystallin [2]; salt concentrations over 300 mm KCl (so in the source)
  reduction of γ-crystallin aggregates: did reduce γ-crystallin aggregates to individual protein particles

## αB: αB-crystallin, heat shock protein and molecular chaperone, 20.16 kDa
[1]; 4°
  Rh: 12 nm
[1]; 22°
  Rh: 13 nm
[1]; 37°
  Rh: 13 nm
γS-crystallin; [8]
  Rhf: 3 nm
γS-crystallin; [9]
  Rhs: 19 nm
γD-crystallin; [8]
  Rhf: 3.2 nm
γD-crystallin; [9]
  Rhs: 17 nm
γ-crystallin [2]
  effect on the large γ-crystallin aggregate: the large γ-crystallin aggregate of several hundred nanometers disappeared
